# Patent US7982018B2, “Modified corticotropin releasing factor peptides and uses thereof” (Conjuchem, LLC, priority 2006, dated 2011)
# Where no end group is shown, it is not given here.
# Test system: Male C57BL/6 mice
# Test: Food intake in mice after a single intravenous injection of urocortin derivatives
# Format: in vivo
# Experimental: The potency of several modified urocortin derivatives were determined by measuring food intake in mice. A study was performed with native human urocortin 1, 2 and 3 to select a dose and to determine whether the IV route was adequate for native peptides. Following the initial study, two additional studies were performed in which the effect of modified derivatives and native peptides were compared.
# Male C57BL/6 mice (22-26g) were housed 3 per cage and fed with standard chow. The night before dosing, mice were food restricted i.e., they were given only half of the amount of food ingested during the previous night. Dosing was performed between 9 and 10 a.m. Mice received a single intravenous injection (5 ml/kg via the tail vein) of saline or urocortin derivatives diluted in saline. Food intake was measured by placing preweighed pellets in the cage and weighing the uneaten pellets at 1, 2, 4, 6, 24 and 48 hours postdose.
# [1] = Study No. 2, FIG. 3, (Ucn II and III derivatives)
# [2] = Study No. 2, FIG. 3, 20 nmol/kg (Ucn I derivatives)
substance,measurement,setting,value
IVLSLDVPIGLLQILLEQARARAAREQATTNARILARVGHC-NH2 (IVLSLDVPIGLLQILLEQARARAAREQATTNARILARVGHC-NH2; listed as Homo sapiens) [SEQ ID No. 92],food intake in the 1-2 h time period versus control,"Study No. 1, FIG. 1, 85 nmol/kg, 1-2 h postdose",back to the control
same,time over which food intake was reduced/inhibited postdose,"Study No. 1, FIG. 1, normal mice, 85 nmol/kg",up to 1 hour
same,cumulative food intake versus saline control,"Study No. 1, FIG. 2, 85 nmol/kg, at 6 hours postdose",still lower than the saline control
"IVLSLDVPIGLLQILLEQARAK-(ε-AEEA-MPA) AAR EQATT NARIL ARV-NH2 (IVLSLDVPIGLLQILLEQARAKAAREQATTNARILARV; Lys-AEEA-MPA, C-terminal amide) [SEQ ID No. 83, Modified peptide of human urocortin 2]",inhibition of food intake as compared to the control group,"Study No. 1, FIG. 1, 85 nmol/kg, 4-6 hour time interval",50%
same,duration of activity on food intake compared with the other tested compounds,[1],most prolonged activity
"FTLSL DVPTN IMNLL FNIAK(ε-AEEA-MPA) ARNLR AQAAA NAHLM AQI-NH2 (FTLSLDVPTNIMNLLFNIAKARNLRAQAAANAHLMAQI; Lys-AEEA-MPA, C-terminal amide) [SEQ ID No. 85, Modified peptide of human urocortin 3]",'rebound' of food intake as compared to the control,[1],increase of food intake as compared to the control
"DNPSLSIDLTFHLLRTLLELAK-(ε-AEEA-MPA)TQS QRERA EQNRI IFDSV-NH2 (DNPSLSIDLTFHLLRTLLELAKTQSQRERAEQNRIIFDSV; Lys-AEEA-MPA, C-terminal amide) [SEQ ID No. 80, Modified peptide of human urocortin 1]",'rebound' of food intake as compared to the control,[2],increase of food intake as compared to the control
"FTLSLDVPTNIMNLLFNIAKAKNLRAQAAANAHLMAQI-NH2 (FTLSLDVPTNIMNLLFNIAKAKNLRAQAAANAHLMAQI-NH2; listed as Homo sapiens) [Urocortin III, Human Urocortin 3 (38 Amino-acids), native peptide]",'rebound' of food intake as compared to the control,[1],increase of food intake as compared to the control
same,activity on food intake versus the free peptide,[1],much less active than the free peptide
same,period of decreased food intake,[1],decreased food intake during the first hour after injection only
"DNPSLSIDLTFHLLRTLLELARTQSQRERAEQNRIIFDSV-NH2 (DNPSLSIDLTFHLLRTLLELARTQSQRERAEQNRIIFDSV-NH2; listed as Homo sapiens) [human urocortin 1, Human Urocortin 1 (40 Amino-acids), native peptide]",time up to which food intake was reduced,[2],up to 4 hours
